Laboratory results from US7026466B1, “Serotonin-gated anion channel” (Massachusetts Institute of Technology, priority 1999, dated 2006).
Like-named read-outs stand apart in the source and are kept apart here.

Legend:
MOD-1 channel = MOD-1 channel (Caenorhabditis elegans, UniProt Q9GQ00); test: Voltage clamp of MOD-1 heterologously expressed in Xenopus oocytes or HEK cells; format: cell-based, C. elegans
C. elegans = test: Enhanced slowing response (locomotion) of food-deprived C. elegans on a bacterial lawn; format: in vivo
5-HT3a channel [1] = molecular target: T1, 5-HT3a channel (Homo sapiens, UniProt P46098); details: read-out: IC 50, competitive antagonist of the 5-HT3a channel; cited from earlier work
T1 sequence (P46098 24-478): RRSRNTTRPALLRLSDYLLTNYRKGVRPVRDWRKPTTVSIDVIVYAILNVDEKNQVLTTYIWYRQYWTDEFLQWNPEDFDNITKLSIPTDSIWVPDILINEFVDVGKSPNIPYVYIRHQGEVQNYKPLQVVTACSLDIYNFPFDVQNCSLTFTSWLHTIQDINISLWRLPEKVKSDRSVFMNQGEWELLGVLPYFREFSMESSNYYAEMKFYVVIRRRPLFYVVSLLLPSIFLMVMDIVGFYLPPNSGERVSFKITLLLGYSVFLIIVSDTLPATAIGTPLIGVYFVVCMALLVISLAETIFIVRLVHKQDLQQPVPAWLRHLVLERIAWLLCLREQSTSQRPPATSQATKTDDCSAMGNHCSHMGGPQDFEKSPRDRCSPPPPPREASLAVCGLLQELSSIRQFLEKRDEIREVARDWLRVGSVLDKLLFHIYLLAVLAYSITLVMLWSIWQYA

[2] = test system: MOD-1-like serotonin-activated current; test: Voltage clamp of Xenopus oocytes injected with rat brain RNA (MOD-1-like response); format: cell-based; details: −70 mV, BAPTA-AM 200 μM
Experimental: A method to identify a mammalian serotonin-gated chloride channel was carried out essentially as described above. Oocytes were injected with rat cortex RNA. […] The oocytes were then screened under a voltage clamp, in a buffer containing 96 mM NaCl, 2 mM KCl, 0.3 mM CaCl2, 1 mM MgCl2, and 5 mM HEPES (pH 7.5), and with 100 mM Tris added.
In additional studies, oocytes were injected with poly(A)+ RNA from rat cortex, striatum, or thalamus, as described above. The oocytes were bathed in 200 μM BAPTA-AM for 2 hours, and were then screened under a voltage clamp, in a bath solution containing 2 mM Co^2+ to block 5-HT3a responses. […] FIG. 12 is a representative time trace of a MOD-1-like response from an oocytes injected with rat cortex RNA. These MOD-1-like currents were not detected in oocytes injected with rat RNA from spinal cord, heart, lung, or testes.

5-HT3a channel [3] = molecular target: T1, 5-HT3a channel
[4] = pretreatment of wild-type C. elegans, food-deprived

Chain of MOD-1 channel (Q9GQ00 whole entry, looked up): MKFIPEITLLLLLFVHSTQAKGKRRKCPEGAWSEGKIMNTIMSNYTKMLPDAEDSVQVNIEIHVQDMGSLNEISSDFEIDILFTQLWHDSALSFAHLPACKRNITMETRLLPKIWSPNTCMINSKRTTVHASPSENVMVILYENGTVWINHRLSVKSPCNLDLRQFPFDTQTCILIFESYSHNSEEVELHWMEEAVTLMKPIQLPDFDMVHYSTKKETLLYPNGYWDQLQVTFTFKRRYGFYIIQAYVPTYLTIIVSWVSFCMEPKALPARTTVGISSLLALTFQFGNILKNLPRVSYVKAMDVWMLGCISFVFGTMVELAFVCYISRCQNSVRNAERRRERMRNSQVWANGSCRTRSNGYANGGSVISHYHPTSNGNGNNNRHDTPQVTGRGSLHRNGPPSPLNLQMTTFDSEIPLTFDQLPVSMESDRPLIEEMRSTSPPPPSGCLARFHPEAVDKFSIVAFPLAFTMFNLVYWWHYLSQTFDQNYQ

Question: What does the source list for `CSc1ccc2c(c1)C(N1CCN(C)CC1)Cc1ccccc1S2` (centres unmarked) [methiothepin]?
Answer: Ki (MOD-1 channel; MOD-1 in oocytes, read-out: approximate Ki, inhibition of the MOD-1 channel): ~32 µM; effect on enhanced slowing response (C. elegans; pre-treatment of mod-1 mutants): did not further affect the defective enhanced slowing response; effect on enhanced slowing response (C. elegans; [4]): prevents food-deprived animals from exhibiting the wild-type enhanced slowing response

Question: Which “response from the MOD-1 channel” value (MOD-1 channel; application of 1 mM agonist) does the source give for `NCCCC(=O)O` [GABA] here?
Answer: little or no response

Question: With `NCC(=O)O` [glycine] as the compound, how does the “response from the MOD-1 channel” value (MOD-1 channel) read?
Answer: little or no response

Question: For σ-conotoxin GVIIIA, which IC50 (5-HT3a channel [1]) is on record?
Answer: ~0.05 µM

Question: Which results are given for `NCCc1c[nH]c2ccc(O)cc12` [serotonin]?
Answer: current elicited (MOD-1 channel; 100 nM, holding potential −70 mV): large inward currents; concentration of agonist at which serotonin-gated currents are detectable (MOD-1 channel; MOD-1 receptors, HEK cell and Xenopus oocyte expression systems): 10 to 50 nM; oocytes with inward currents ([2]; rat cortex RNA, 1 μM serotonin for 1 minute, 100 mM Tris): about 10%; oocytes with inward currents ([2]; rat cortex, striatum or thalamus poly(A)+ RNA, 1 μM serotonin, 2 mM Co2+): approximately 33%; response of 5-HT3a channels (5-HT3a channel [3]; 1 μM serotonin): no response is detectable; response of 5-HT3a channels (5-HT3a channel [3]; 10 μM serotonin): robust current; concentration of agonist at which serotonin-gated currents are detectable (5-HT3a channel [3]; 5-HT3 receptors, HEK cell and Xenopus oocyte expression systems): > 10 µM

Question: With `CN1CCN2c3ccccc3Cc3ccccc3C2C1` (centres unmarked) [mianserin] as the compound, how does the “effect on enhanced slowing response” value (C. elegans; pre-treatment of mod-1 mutants) read?
Answer: did not further affect the defective enhanced slowing response

Question: What about the “effect on enhanced slowing response” value (C. elegans; [4]) of the same compound?
Answer: prevents food-deprived animals from exhibiting the wild-type enhanced slowing response

Question: Which “block of the 5-HT3 cation channel” value (5-HT3a channel [3]; 100 mM added to buffer) does the source give for `NC(CO)(CO)CO` [Tris] here?
Answer: completely blocks

Question: For `CC(=O)OCOC(=O)CN(CC(=O)OCOC(C)=O)c1ccccc1OCCOc1ccccc1N(CC(=O)OCOC(C)=O)CC(=O)OCOC(C)=O` [BAPTA-AM], which “effect on the function of MOD-1” value (MOD-1 channel; approximately 200 μM in the bath) is on record?
Answer: does not affect the function of MOD-1
